Marks after values point to notes of the source that are not given here.
Assays:
Format in all cases: cell-based
Set-up in all cases: unit not given here
[1] = tested on: human TLR7 mutant (dIRR2); test: TLR7 mutant (deletion in second leucine-rich repeat) NFκB-luc cellular reporter assay; conditions: HEK293 NFκB-luc reporter, mutant TLR7, 6 hours incubation
Experimental: (§1) The ability of compounds to activate human TLR7 and/or TLR8 was assessed in a cellular reporter assay using HEK293 cells transiently transfected with a TLR7 or TLR8 expression vector and NFκB-luc reporter construct. In one instance the TLR expression construct expresses the respective wild type sequence or a mutant sequence comprising a deletion in the second leucine-rich repeat of the TLR.
(§2) Briefly, HEK293 cells were grown in culture medium (DMEM supplemented with 10% FCS and 2 mM Glutamine). For transfection of cells in 10 cm dishes, cells were detached with Trypsin-EDTA, transfected with a mix of CMV-TLR7 or TLR8 plasmid (750 ng), NFκB-luc plasmid (375 ng) and a transfection reagent and incubated 24 hours at 37° C. in a humidified 5% CO2 atmosphere. Transfected cells were then detached with Trypsin-EDTA, washed in PBS and resuspended in medium to a density of 1.67×10^5 cells/mL. Thirty microliters of cells were then dispensed into each well in 384-well plates, where 10 μL of compound in 4% DMSO was already present. Following 6 hours incubation at 37° C., 5% CO2, the luciferase activity was determined by adding 15 μl of Steady Lite Plus substrate (Perkin Elmer) to each well and readout performed on a ViewLux ultraHTS microplate imager (Perkin Elmer). Dose response curves were generated from measurements performed in quadruplicates. Lowest effective concentrations (LEC) values, defined as the concentration that induces an effect which is at least two fold above the standard deviation of the assay, were determined for each compound.

human TLR7 = target: T1, human TLR7 (Homo sapiens, UniProt Q9NYK1); test: TLR7 wild type NFκB-luc cellular reporter assay
T1 construct: expressed in transfected cells; host or cells: HEK293
T1 sequence (Q9NYK1 27-1049): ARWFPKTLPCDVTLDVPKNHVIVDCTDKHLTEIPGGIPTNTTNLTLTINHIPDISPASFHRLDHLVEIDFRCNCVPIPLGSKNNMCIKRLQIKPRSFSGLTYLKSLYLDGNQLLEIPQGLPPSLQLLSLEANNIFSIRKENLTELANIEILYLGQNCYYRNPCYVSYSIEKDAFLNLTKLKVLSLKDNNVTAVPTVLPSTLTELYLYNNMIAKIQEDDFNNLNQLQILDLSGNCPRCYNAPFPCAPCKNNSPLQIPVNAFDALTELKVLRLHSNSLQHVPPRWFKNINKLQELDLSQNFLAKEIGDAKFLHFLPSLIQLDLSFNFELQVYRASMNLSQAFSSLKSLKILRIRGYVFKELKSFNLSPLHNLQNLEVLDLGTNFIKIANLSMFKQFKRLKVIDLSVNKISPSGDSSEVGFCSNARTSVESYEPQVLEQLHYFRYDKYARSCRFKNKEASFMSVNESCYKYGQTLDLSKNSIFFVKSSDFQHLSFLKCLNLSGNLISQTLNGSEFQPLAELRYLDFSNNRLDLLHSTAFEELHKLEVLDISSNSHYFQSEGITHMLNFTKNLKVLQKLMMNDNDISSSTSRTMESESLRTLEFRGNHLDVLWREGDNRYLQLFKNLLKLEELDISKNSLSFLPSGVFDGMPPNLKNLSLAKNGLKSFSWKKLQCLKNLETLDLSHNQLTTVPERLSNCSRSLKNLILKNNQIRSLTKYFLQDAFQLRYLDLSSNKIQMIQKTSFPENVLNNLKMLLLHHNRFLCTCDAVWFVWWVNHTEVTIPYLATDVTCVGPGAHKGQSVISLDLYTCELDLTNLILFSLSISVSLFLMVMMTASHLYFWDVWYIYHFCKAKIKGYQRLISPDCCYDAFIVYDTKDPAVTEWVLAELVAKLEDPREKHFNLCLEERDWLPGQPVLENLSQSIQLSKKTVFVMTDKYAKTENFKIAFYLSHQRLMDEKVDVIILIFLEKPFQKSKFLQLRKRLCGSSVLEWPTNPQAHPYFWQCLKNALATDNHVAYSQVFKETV
Experimental: as §1
as §2, with “Following 6 hours incubation at 37° C., 5% CO2, the luciferase activity was determined by adding 15 μl of Steady Lite Plus substrate (Perkin Elmer) to each well and readout performed on a ViewLux ultraHTS microplate imager (Perkin Elmer).” left out

[2] = tested on: human TLR8 mutant (dIRR2); test: TLR8 mutant (deletion in second leucine-rich repeat) NFκB-luc cellular reporter assay; conditions: HEK293 NFκB-luc reporter, mutant TLR8, 6 hours incubation
Experimental: as §1, §2

SMILES | TLR7-dIRR2_LEC [1] | TLR7-wt_LEC (human TLR7; HEK293 NFκB-luc reporter, 6 hours incubation, lowest effective concentration) | TLR8-dIRR2_LEC [2] | TLR7-wt_LEC (human TLR7; Assay run at 48 hours)
CCCCNc1nc(N)nc2cc(OC)c(OC)cc12 [Compound 1] | 0.4 | 5.0 | 0.6 | 
CCCC[C@@H](CCO)Nc1nc(N)nc2cc(OC)c(OC)cc12 [Compound 3] | 0.9 |  | 2.4 | 4.0 *

From patent publication US8916575B2, “Quinazoline derivatives for the treatment of viral infections and further diseases” (Janssen R&D Ireland, priority 2011, dated 2014)
